The values below come from paper PMC1559639 (BMC Clinical Pharmacology, 2006).

A short description of series [1]: Plasma kinetics after single oral dose of 300 mg Pycnogenol in healthy volunteers. Format: in vivo, human. The note with it: for tmax: read-out: tmax (time of maximal plasma concentration); for half-life: read-out: term t½ (terminal half-life) (converted). The procedure: Eleven volunteers (five female and six male) participated in this study. After a 24 hour diet free of flavonoids (no vegetables, fruits and fruit juices or marmalades, tea, coffee, cocoa, wine and beer) a venous blood catheter was inserted into an antecubital vein and blood samples were drawn to obtain basal values (t = 0 h at 8:00 a.m.). […] After each blood sampling mineral water was served. Blood samples were obtained at t = 0.5 h, 1 h, 2 h, 4 h, 6 h, 8 h, 10 h, 12 h and 14 h. Samples were centrifuged and plasma was aliquoted, shock frozen and stored at -80°C until further analysis.
(§1) Plasma samples of 2.0 mL were prepared for analysis. For determination of total plasma concentration, to each sample 20 U β-glucuronidase (type H-3 from Helix pomatia; EC 3.2.1.31) and 20 U sulfatase (type H-1 from Helix pomatia; EC 3.1.6.1) were added in 50 mM sodium acetate buffer (pH 5.0) and incubated for 2 h at 37°C under gentle shaking. Samples for determination of free plasma concentrations were prepared without prior incubation with enzymes. Each 20 μL of p-hydroxybenzoic acid methylester (100 μg/mL; for HPLC UV detection) and hydrochinone (10 μg/mL; for HPLC electrochemical detection) were added as internal standards and samples were acidified with 100 μL 1 M-HCl. Samples were extracted twice with each 3 mL acetic acid methylester for 20 min, using a roller mixer, followed by centrifugation (20°C) 5 min. The organic phases of both extractions were separated, combined and evaporated to dryness under a gentle stream of nitrogen at 25°C. The resulting residue was reconstituted in 100 μL methanol and subjected to HPLC analysis.
(§2) The HPLC system was a Waters HPLC (Milford, MA, USA) consisted of a 1525 binary pump, a 717plus autosampler, a 2487 dual wavelength absorbance detector set at the detection wavelength of 280 nm and an electrochemical detector CLC 100 (Chromsystems, Munich, Germany) set at an oxidation voltage of 0.5 V. The second detector was connected to the control system by a satellite interface (Waters). Data collection and integration were accomplished using Breeze™ software version 3.30. Analysis was performed on a Zorbax SB C8 column (150 × 4.6 mm I.D., 5 μm particle size, Agilent Technologies, Palo Alto, CA, USA).
(§3) Typically, 20 μL of sample were injected and separated at a flow rate of 1 mL/min. Isocratic elution was performed using water (containing 0.6 mM 1-octanesulfonic acid sodium salt, 0.27 mM ethylenediaminetetraacetic acid disodium salt, 0.04 M triethylamine; pH 2.95 adjusted with phosphoric acid) and acetonitrile (ACN, HPLC gradient quality, Fisher Scientific, Schwerte, Germany). Method A (for UV detection of ferulic acid, M2 (δ-(3-Methoxy-4-hydroxy-phenyl)-γ-valerolactone), U1, U2, U3, U4, U7, U8, and U9) used water/ACN at 85:15 (v/v).

The nature of a further series: clinical. The settings on record: for % conjugated (mean degree of conjugation with sulfate and glucuronic acid): steady state plasma, mean of volunteers; for concentration at 4 h: both sexes, 200 mg. The class given is in vivo. As for the experimental part: Five volunteers (four female and one person) participated in this study. After a 24 hour diet free of flavonoids blood samples were drawn to obtain basal values. […] It was assumed that steady state plasma concentrations were reached after 5 days.
Four hours after the last intake of Pycnogenol on day five a second blood sample was obtained from each volunteer. Again, a 24 hour period of a diet free of flavonoids preceded this blood sampling. Blood samples were centrifuged and plasma was aliquoted, shock frozen and stored at -80°C until further analysis.
as §1, §2, §3

The conditions of series [2]: cited from earlier work; for t½: reported previously.
For a further series, the system named is MMP-9 release. The settings on record: in vitro / cell culture assays; read-out: IC50, inhibition of MMP-9 release; cited from earlier work.
The mark [3] stands for this setting: both sexes, human, plasma, po, 300 mg, human volunteers, single oral dose 300 mg Pycnogenol, total (free and conjugated) plasma, t = 14 h, mean ± SD, read-out: AUC [0-t].
Where [4] appears, read: both sexes, human, plasma, po, 300 mg, human volunteers, single oral dose 300 mg Pycnogenol, total plasma, mean ± SD, read-out: AUC [t-8].
Where [5] appears, read: both sexes, human, plasma, po, 300 mg, human volunteers, single oral dose 300 mg Pycnogenol, total plasma, mean ± SD, read-out: cmax (maximal plasma concentration).
The mark [6] stands for this setting: both sexes, human, plasma, po, 300 mg, human volunteers, single oral dose 300 mg Pycnogenol, total plasma, mean ± SD.
Where [7] appears, read: both sexes, human, plasma, po, 300 mg.
Setting [8] is: human volunteers, single oral dose 300 mg Pycnogenol, total plasma, mean ± SD.
The mark [9] stands for this setting: both sexes, human, plasma, oral, 300 mg, single dose 300 mg Pycnogenol, total plasma, read-out: cmax converted to molar concentration.
Setting [10] is: 200 mg Pycnogenol once daily for five days.
Where [11] appears, read: human, plasma, oral, 200 mg Pycnogenol once daily for five days, 4 h after last dose, with sulfatase and glucuronidase, mean ± mean deviation, read-out: Total plasma concentration.
[12] abbreviates: human, plasma, oral, 200 mg Pycnogenol once daily for five days, 4 h after last dose, without enzyme incubation, read-out: Free plasma concentration.
The mark [13] stands for this setting: both sexes, human, plasma, oral, 300 mg.

Where “and” joins values, the source holds several entries; their conditions need not be identical. Equal values may be shown once. Read-outs that look alike come from different tables or passages of the source.

The term half-life denotes how long it takes for the measured level to halve. Consider `O=C1c2c(O)cc(O)cc2O[C@H](c2ccc(O)c(O)c2)[C@H]1O` (racemic) [Taxifolin, (±)-taxifolin], for which the AUC(0-t) in series [1] (setting [3]) amounted to 231 ± 86 ng·h/mL; in series [1] (setting [4]), 399 ± 99 ng·h/mL. Also, in series [1] (setting [5]), the Cmax turned out to be 33.3 ± 12.5 ng/mL. Moreover, the tmax in series [1] (setting [6]) amounted to 8 h. Further, the half-life in series [1] (setting [7]) is 8.89 ± 2.81 h. Further, the “tmax (time of maximal plasma concentration)” value in series [1] (setting [8]) was 8.2 ± 2.5 h.

`O=C(O)Cc1ccc(O)c(O)c1` [3,4-dihydroxyphenylacetic acid]: the “detection of taxifolin degradation products in volunteers' plasma” value in series [1] (after Pycnogenol intake) is listed as “failed to detect”.

By t½ is commonly meant the time needed for the level to fall by half in the phase considered. Regarding `O=C(O)/C=C/c1ccc(O)c(O)c1` [Caffeic acid, caffeic acid], the Cmax in series [1] (setting [9]) was around 90 nM; in series [1] (setting [5]), around 17 ng/mL; in series [2] (after ingestion of 107 mg caffeic acid from artichoke leaf extract) it was 6.5 ng/mL; in series [2] (after intake of 55 μg caffeic acid per kg body weight, read-out: cmax) it was 84 nM. For the same molecule, the AUC(0-t) amounted to 75.7 ± 33.5 ng·h/mL in series [1] (setting [3]) and 82.8 ± 36.5 ng·h/mL in series [1] (setting [4]). Besides, the tmax in series [1] (setting [6]) is 3 to 4 h; in series [2] (after ingestion of red wine), 2 h; in series [2] (after intake of red wine, coffee or artichoke leaf extract), 0.5 to 1 h. Moreover, in series [1] (setting [7]), the half-life was 4.42 ± 2.47 h. The “cmax (maximal plasma concentration)” value in series [1] (setting [8]) turned out to be 16.67 ± 13.29 ng/mL. The “tmax (time of maximal plasma concentration)” value in series [1] (setting [8]) is given as 3.7 ± 2.4 h. The “% conjugated (mean degree of conjugation with sulfate and glucuronic acid)” value (“% conjugated” below) in the series “clinical” (setting [10]) was 69.4 ± 11.8%; in “clinical” (200 mg Pycnogenol once daily for five days, listed as caffeic acid) it was 69.4% and 69%. Also, the results for the concentration at 4 h in the series “clinical” (setting [11]) and in “clinical” (setting [12]) were 2.42 ± 1.39 ng/mL and 0.56 ± 0.02 ng/mL, respectively. Further, the “individual degree of conjugation” value in the series “clinical” (single volunteers, 200 mg Pycnogenol daily for five days) is 59.6% and 61.5% and 87.6%. Further, in series [2], the t½ is on record as 3.08 ± 1.53 h.

Molecule `Oc1cc(O)c2c(c1)O[C@H](c1ccc(O)c(O)c1)[C@@H](O)C2` [Catechin, (+)-catechin] had a concentration at 0.5 h in series [1] (setting [13]) of around 60 ng/mL. Also, the concentration at 4 h in series [1] (setting [13]) is around 100 ng/mL; in “clinical” (setting [11]) it was 48.6 ± 16.7 ng/mL; in “clinical” (setting [12]) it was 21 ± 13.1 ng/mL. In addition, the Cmax was around 370 nM in series [1] (setting [9]) and around 100 ng/mL in series [1] (setting [5]). Also, the tmax in series [1] (setting [6]) was at most 3 h; in series [2] (human plasma, after ingestion of red wine or reconstituted red wine) it was 1.5 h. Moreover, the “cmax (maximal plasma concentration)” value in series [1] (setting [8]) was 107.22 ± 55.49 ng/mL. In addition, the “tmax (time of maximal plasma concentration)” value in series [1] (setting [8]) is reported as 3.2 ± 1.7 h. The “free catechin concentration (share of total)” value in the series “clinical” (both, human, in vivo, 4 h) was “about 56%”. Besides, the “time window of detection of unchanged compound in plasma” value in series [2] (after a high single dose) is “between 30 min and 12 h”. Further, the “free polyphenol concentration as share of total concentration” value in series [2] (after a single dose of pure catechin) was 1.1 to 6.5%. Further, in series [2] (after ingestion of pure catechin), the “time by which plasma concentrations were not significantly different from baseline” value is on record as at most 4 h.

Take `COc1cc(/C=C/C(=O)O)ccc1O` [Ferulic acid, ferulic acid]: the Cmax in series [1] (setting [9]) is around 75 nM; in series [1] (setting [5]), around 15 ng/mL. Further, the AUC(0-t) in series [1] (setting [3]) is 99 ± 28.1 ng·h/mL; in series [1] (setting [4]), 141 ± 73.9 ng·h/mL. The half-life in series [1] (setting [7]) was 6.87 ± 3.83 h. Further, the “cmax (maximal plasma concentration)” value in series [1] (setting [8]) was found to be 14.78 ± 5.89 ng/mL. The “tmax (time of maximal plasma concentration)” value in series [1] (setting [8]) is 1.2 ± 1.1 h; in series [1] (human volunteers, single oral dose 300 mg Pycnogenol, total plasma, mean ± SD, listed as ferulic acid), 0.5 to 1 h and 1 h. For the same molecule, the “% conjugated” value in “clinical” (setting [10]) is “≈ 100%”. In “clinical” (human, in vivo, read-out: Total plasma concentration), the concentration at 4 h was around 20 ng/mL. In addition, in series [2] (after ingestion of 250 mg ferulic acid from breakfast cereals), the plasma concentrations is 150 to 210 nM. For the same molecule, the “free ferulic acid (share)” value in series [2] (after single ingestion of beer) is given as “around 25%”. For the same molecule, the tmax in series [2] (other report, ref 6) was 0.77 h; in series [2] (other report, ref 27), 1 to 3 h. Moreover, in series [2], the t½ is 6.35 ± 2.95 h.

Usually IC50 stands for the concentration at which inhibition is half-maximal. On to `O=C1CCC(Cc2ccc(O)c(O)c2)O1` (centres unmarked) [M1, δ-(3,4-Dihydroxy-phenyl)-γ-valerolactone], for which the IC50 in the series on MMP-9 release was 500 nM. The “time of first detection in plasma” value in series [1] (after single dose 300 mg Pycnogenol, first sampling at 0.5 h) stood at 6 h. Besides, the “mean concentration at peak” value in series [1] (around 10 h after single dose 300 mg Pycnogenol, total plasma) was determined as 3.59 ng/mL. The figures for the Cmax in series [1] (setting [9]) and in series [1] (setting [5]) were around 20 nM and around 4 ng/mL, respectively. Besides, the tmax in series [1] (setting [6]) was around 10 h. Further, the “presence in plasma over the experimental period of 14 h” value in series [1] (single dose 300 mg Pycnogenol) is “still present 14 h after Pycnogenol ingestion”. Also, the “% conjugated” value in the series “clinical” (setting [10]) is listed as “≈ 100%”. In addition, the concentration at 4 h in “clinical” (setting [11]) was found to be 3.01 ng/mL. In addition, in series [2] (after green tea ingestion), the earliest appearance was 3 h. Further, the “time of peak plasma levels” value in series [2] (after ingestion of green tea) was 5 to 12 h.

As to `COc1cc(CC2CCC(=O)O2)ccc1O` (centres unmarked) [M2, δ-(3-Methoxy-4-hydroxy-phenyl)-γ-valerolactone], the IC50 with MMP-9 release is 500 nM. For the same molecule, in series [1] (after single dose and repeated ingestion of Pycnogenol), the “plasma concentration (not detected; lower limit of quantitation)” value was below 50 ng/mL.

Turning to `Oc1cc(O)cc(O)c1` [phloroglucin], in series [1] (human, in vivo), the “detection of taxifolin degradation products in volunteers' plasma” value is given as “failed to detect”.
